Laboratory results: patent publication US8703210B1, “Adding calcium and bicarbonate to human blood” (Sang Lads, Inc., priority 2005, dated 2014)
Where two headings read alike, the source gives them in different places.

Compound: O=C([O-])[O-].[Ca+2] [Calcium carbonate, calcium carbonate]
- pH (after carbonic acid (in the form of club soda) is added to the mixture): neutral
- pH (calcium carbonate powder dissolved into water): ≤ 9
